Test results: paper PMC10878397, “Development of Potent Dual BET/HDAC Inhibitors via Pharmacophore Merging and Structure-Guided Optimization” (ACS Chemical Biology, 2024)
Where two headings read alike, the source gives them in different places.

Legend:
[1] = molecular target: BRD4 bromodomains (Homo sapiens, UniProt O60885); assay: NanoBRET target engagement assay, both bromodomains; format: cell-based
Method: The assay was performed as described previously.[17],[59] In brief, BRD4 bromodomains and full-length HDACs were obtained as plasmids cloned in-frame with a terminal NanoLuc fusion (Promega). Plasmids were transfected into HEK293T cells using FuGENE HD (Promega, E2312), and proteins were allowed to express for 20 h. Serially diluted inhibitor and the corresponding NanoBRET Tracer (Promega) at a concentration determined previously as the tracer KD, app were pipetted into white 384-well plates (Greiner #781207) for BRD assays or white 96-well plates (Corning #3600) for HDAC using an Echo acoustic dispenser (Labcyte). The corresponding protein-transfected cells were added and reseeded at a density of 2 × 10^5 cells/mL after trypsinization and resuspended in Opti-MEM without phenol red (Life Technologies). The system was allowed to equilibrate for 2 h at 37 °C/5% CO2 prior to BRET measurements. To measure BRET, NanoBRET NanoGlo substrate + Extracellular NanoLuc Inhibitor (Promega, N2540) was added as per the manufacturer’s protocol, and filtered luminescence was measured on a PHERAstar plate reader (BMG Labtech) equipped with a luminescence filter pair (450 nm BP filter (donor) and 610 nm LP filter (acceptor)). For lysed-mode NanoBRET experiments, digitonin (Promega, #G9441) was added as per the manufacturer’s instructions to a final concentration of […].

[2] = molecular target: T1, SMARCA2A (Homo sapiens, UniProt P51531); assay: DSF bromodomain selectivity panel; format: binding; details: 10 μM compound
T1 construct: purchased in-house (SGC Frankfurt recombinant bromodomain DSF panel)
T1 sequence (P51531 whole entry): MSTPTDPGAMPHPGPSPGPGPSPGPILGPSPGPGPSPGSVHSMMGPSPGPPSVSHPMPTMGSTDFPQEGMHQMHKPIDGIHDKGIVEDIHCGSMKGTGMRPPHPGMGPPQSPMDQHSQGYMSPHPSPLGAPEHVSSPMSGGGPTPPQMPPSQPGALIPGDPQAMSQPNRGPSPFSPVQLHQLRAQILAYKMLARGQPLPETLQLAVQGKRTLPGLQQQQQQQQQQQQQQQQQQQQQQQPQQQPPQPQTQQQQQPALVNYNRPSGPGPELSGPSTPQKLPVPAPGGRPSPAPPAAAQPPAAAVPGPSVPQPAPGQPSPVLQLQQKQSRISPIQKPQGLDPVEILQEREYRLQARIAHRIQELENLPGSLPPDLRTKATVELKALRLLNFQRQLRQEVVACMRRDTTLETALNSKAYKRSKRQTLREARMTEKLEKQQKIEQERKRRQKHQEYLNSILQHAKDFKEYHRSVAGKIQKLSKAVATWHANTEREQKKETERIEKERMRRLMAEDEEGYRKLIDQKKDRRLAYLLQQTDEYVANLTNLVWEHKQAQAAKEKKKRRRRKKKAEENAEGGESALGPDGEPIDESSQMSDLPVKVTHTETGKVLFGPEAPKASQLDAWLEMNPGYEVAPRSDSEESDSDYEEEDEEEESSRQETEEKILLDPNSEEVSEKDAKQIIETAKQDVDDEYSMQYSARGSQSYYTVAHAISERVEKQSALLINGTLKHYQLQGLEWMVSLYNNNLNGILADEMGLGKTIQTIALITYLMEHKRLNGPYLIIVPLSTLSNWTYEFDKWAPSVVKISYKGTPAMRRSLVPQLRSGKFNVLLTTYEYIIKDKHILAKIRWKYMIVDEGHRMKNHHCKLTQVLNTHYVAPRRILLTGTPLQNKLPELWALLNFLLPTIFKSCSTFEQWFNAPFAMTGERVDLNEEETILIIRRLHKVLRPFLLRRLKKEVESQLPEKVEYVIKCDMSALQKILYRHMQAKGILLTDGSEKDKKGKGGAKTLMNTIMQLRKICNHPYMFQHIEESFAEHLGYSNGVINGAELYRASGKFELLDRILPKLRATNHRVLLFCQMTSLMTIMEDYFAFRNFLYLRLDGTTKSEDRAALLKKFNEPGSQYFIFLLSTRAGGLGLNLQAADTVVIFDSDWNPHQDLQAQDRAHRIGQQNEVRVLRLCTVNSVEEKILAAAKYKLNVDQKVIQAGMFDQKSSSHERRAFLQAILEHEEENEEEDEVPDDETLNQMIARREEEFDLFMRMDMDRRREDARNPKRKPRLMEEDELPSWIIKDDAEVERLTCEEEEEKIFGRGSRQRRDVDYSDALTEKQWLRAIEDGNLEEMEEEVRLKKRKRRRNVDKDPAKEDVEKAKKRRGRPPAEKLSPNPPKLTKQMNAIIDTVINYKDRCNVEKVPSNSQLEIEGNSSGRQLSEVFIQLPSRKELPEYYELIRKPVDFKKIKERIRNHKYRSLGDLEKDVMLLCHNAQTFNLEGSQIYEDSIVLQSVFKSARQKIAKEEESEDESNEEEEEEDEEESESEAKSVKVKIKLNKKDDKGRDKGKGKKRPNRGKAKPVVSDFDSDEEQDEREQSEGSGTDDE
Method: (§1) The effects of inhibitor binding on the apparent melting temperature of recombinant bromodomains were determined by DSF in a 96-well plate (Starlab) at a protein concentration of 2 μM with 10 μΜ compound in buffer containing 25 mM HEPES, pH 7.5, 150 mM NaCl, and 0.5 mM TCEP. […] Protein unfolding profiles were recorded using an MX3005P real-time qPCR instrument (Agilent; excitation/emission filters = 492/610 nm) while increasing the temperature from 25 to 95 °C at a heating rate of 3 °C/min. Tm values were calculated after fitting the fluorescence curves to the Boltzmann equation. Differences in melting temperature upon compound binding are given as ΔTm = Tm (protein with inhibitor) – Tm (protein with DMSO control). Measurements were performed in triplicates.

[3] = molecular target: T2, BRD2 (1) (Homo sapiens, UniProt P25440); assay: DSF bromodomain selectivity panel; format: binding; details: 10 μM compound
T2 construct: BRD2 (1); purchased in-house (SGC Frankfurt recombinant bromodomain DSF panel)
T2 sequence (P25440 71-194 limits assumed): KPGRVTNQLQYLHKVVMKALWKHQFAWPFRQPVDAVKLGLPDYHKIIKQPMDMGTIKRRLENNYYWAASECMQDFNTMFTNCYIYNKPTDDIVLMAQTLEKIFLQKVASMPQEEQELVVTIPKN
Method: as §1

[4] = molecular target: T3, PB1A(3) (Homo sapiens, UniProt Q86U86); assay: DSF bromodomain selectivity panel; format: binding; details: 10 μM compound
T3 construct: PB1A(3); purchased in-house (SGC Frankfurt recombinant bromodomain DSF panel)
Method: as §1

[5] = molecular target: T4, BRD2 (2) (Homo sapiens, UniProt P25440); assay: DSF bromodomain selectivity panel; format: binding; details: 10 μM compound
T4 construct: BRD2 (2); purchased in-house (SGC Frankfurt recombinant bromodomain DSF panel)
T4 sequence (P25440 344-455 limits assumed): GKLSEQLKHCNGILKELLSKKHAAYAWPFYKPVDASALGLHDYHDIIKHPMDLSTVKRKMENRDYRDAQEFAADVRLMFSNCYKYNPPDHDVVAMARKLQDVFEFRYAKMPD
Method: as §1

[6] = molecular target: T5, BRD9 (Homo sapiens, UniProt Q9H8M2); assay: DSF bromodomain selectivity panel; format: binding; details: 10 μM compound
T5 construct: purchased in-house (SGC Frankfurt recombinant bromodomain DSF panel)
T5 sequence (Q9H8M2 whole entry): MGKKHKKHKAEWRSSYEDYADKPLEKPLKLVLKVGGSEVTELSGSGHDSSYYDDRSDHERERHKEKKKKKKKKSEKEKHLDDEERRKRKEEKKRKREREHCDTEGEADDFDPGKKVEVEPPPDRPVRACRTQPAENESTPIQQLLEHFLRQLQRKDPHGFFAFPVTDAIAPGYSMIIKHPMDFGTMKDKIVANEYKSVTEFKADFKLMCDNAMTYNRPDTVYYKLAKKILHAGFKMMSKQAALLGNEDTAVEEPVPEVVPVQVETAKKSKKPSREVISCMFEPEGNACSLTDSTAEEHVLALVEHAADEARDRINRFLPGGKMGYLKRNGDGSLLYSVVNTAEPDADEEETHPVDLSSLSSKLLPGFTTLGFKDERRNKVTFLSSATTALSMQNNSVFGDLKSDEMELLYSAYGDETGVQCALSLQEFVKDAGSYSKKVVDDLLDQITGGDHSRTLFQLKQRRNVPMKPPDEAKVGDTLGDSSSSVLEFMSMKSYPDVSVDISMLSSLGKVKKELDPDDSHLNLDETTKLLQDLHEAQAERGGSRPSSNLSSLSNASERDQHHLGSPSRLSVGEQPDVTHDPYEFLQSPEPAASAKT
Method: as §1

[7] = molecular target: T6, ATAD2A (Homo sapiens, UniProt Q6PL18); assay: DSF bromodomain selectivity panel; format: binding; details: 10 μM compound
T6 construct: purchased in-house (SGC Frankfurt recombinant bromodomain DSF panel)
Method: as §1

[8] = molecular target: T7, BRD3 (1) (Homo sapiens, UniProt Q15059); assay: DSF bromodomain selectivity panel; format: binding; details: 10 μM compound
T7 construct: BRD3 (1); purchased in-house (SGC Frankfurt recombinant bromodomain DSF panel)
Method: as §1

[9] = molecular target: T8, PB1A(4) (Homo sapiens, UniProt Q86U86); assay: DSF bromodomain selectivity panel; format: binding; details: 10 μM compound
T8 construct: PB1A(4); purchased in-house (SGC Frankfurt recombinant bromodomain DSF panel)
Method: as §1

[10] = molecular target: T9, WDR9A(1) (Homo sapiens, UniProt Q9NSI6); assay: DSF bromodomain selectivity panel; format: binding; details: 10 μM compound
T9 construct: WDR9A(1); purchased in-house (SGC Frankfurt recombinant bromodomain DSF panel)
T9 sequence (Q9NSI6 1150-1280 limits assumed): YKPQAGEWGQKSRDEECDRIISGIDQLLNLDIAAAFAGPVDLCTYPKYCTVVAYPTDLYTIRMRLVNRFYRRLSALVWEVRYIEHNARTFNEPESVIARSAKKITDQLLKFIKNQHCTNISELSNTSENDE
Method: as §1

[11] = molecular target: T10, CREBBPA (Homo sapiens, UniProt Q92793); assay: DSF bromodomain selectivity panel; format: binding; details: 10 μM compound
T10 construct: purchased in-house (SGC Frankfurt recombinant bromodomain DSF panel)
T10 sequence (Q92793 whole entry): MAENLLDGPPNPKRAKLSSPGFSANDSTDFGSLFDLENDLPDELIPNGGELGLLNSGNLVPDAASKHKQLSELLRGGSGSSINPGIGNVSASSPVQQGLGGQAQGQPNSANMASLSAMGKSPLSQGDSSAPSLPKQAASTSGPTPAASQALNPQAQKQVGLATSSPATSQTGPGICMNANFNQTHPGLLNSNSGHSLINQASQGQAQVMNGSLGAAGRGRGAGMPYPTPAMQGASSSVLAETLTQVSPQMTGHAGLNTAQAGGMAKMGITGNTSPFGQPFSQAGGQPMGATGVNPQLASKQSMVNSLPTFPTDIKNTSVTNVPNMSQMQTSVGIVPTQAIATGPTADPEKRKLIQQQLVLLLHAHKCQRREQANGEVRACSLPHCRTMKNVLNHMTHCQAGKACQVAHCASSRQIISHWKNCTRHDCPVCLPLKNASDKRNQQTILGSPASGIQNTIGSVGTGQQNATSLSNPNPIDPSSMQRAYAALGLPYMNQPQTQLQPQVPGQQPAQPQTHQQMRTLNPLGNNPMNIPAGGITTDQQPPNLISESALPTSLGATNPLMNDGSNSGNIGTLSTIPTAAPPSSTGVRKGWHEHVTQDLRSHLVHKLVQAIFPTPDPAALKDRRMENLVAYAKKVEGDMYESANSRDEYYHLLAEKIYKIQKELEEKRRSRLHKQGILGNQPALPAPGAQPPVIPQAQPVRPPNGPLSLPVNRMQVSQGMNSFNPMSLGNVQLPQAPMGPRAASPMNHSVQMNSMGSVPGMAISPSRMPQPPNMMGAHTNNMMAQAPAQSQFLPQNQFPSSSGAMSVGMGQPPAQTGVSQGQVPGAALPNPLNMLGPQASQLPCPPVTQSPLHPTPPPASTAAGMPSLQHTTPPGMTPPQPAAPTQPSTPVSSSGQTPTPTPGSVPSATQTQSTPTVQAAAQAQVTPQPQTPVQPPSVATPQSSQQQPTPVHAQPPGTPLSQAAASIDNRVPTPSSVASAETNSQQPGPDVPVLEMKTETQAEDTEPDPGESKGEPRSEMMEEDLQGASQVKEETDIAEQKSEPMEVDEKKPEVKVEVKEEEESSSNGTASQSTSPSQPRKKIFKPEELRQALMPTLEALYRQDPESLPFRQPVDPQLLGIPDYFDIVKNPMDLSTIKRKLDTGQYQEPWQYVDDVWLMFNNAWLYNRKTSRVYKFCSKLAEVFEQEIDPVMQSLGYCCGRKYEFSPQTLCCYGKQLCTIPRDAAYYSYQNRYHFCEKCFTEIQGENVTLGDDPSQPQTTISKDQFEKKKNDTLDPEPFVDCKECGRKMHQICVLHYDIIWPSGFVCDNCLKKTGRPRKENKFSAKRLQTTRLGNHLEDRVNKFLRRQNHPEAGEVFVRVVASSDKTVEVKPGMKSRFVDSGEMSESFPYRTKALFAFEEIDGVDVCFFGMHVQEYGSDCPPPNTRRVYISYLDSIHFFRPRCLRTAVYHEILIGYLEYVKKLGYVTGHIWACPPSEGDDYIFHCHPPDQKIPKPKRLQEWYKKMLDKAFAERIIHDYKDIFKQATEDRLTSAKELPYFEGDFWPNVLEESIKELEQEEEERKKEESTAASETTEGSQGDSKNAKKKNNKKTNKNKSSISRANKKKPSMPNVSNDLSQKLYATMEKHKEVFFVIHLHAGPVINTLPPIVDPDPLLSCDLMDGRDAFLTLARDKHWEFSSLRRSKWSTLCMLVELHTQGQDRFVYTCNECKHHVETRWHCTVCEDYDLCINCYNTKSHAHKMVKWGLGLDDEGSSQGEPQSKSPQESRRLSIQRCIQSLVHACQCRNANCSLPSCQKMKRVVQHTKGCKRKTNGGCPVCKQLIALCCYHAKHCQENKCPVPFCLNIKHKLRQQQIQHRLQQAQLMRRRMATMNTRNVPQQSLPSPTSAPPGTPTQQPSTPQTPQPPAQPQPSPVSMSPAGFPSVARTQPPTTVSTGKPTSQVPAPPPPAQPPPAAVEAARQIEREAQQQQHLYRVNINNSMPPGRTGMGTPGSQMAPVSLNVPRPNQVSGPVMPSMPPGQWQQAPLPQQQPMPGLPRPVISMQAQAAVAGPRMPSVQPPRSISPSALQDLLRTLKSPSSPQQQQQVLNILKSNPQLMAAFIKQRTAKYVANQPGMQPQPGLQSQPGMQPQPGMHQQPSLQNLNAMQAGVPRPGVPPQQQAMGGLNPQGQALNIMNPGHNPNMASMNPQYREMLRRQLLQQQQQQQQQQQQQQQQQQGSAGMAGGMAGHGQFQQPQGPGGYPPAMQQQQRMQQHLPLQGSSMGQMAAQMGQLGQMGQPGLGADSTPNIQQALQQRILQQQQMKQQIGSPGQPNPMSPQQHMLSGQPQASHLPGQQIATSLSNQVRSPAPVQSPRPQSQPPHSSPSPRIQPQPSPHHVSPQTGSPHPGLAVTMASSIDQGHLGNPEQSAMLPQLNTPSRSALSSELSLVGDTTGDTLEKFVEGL
Method: as §1

[12] = system: panel of 32 bromodomains; assay: DSF selectivity screen, whole panel; format: binding; details: 10 μM compound
Method: as §1

[13] = molecular target: BRD4 BD1 (Homo sapiens, UniProt O60885); assay: Isothermal titration calorimetry; format: binding; design: BRD4 BD1 (residues N44-E168) for structural studies was subcloned in the pNIC28-Bsa4 vector; His6 (followed by a TEV site) (N, cleaved yes); made in house; host or cells: Escherichia coli BL21(D3)-R3-pRARE2 Rosetta; details: for ITC -TΔS / ITC Ka / ITC n (stoichiometry) / ITC ΔG / ITC ΔH / ITC ΔS / Kd: 15 °C
Method: ITC measurements were performed using a Nano ITC microcalorimeter (TA Instruments, New Castle, Pennsylvania). For all experiments, reverse titration was performed (syringe containing the protein solution; cell containing the ligand) in ITC buffer containing 25 mM HEPES, pH 7.5, 150 mM NaCl, 0.5 mM TCEP, and 5% glycerol. All compounds were diluted from 50 mM DMSO stocks to 20 μΜ in ITC buffer, and BRD4-BD1 was diluted to 120 μΜ in a DMSO-adjusted ITC buffer. BRD4-BD1 (120 μΜ) was titrated into the compound solution (20 μΜ) with an initial injection (4 μL) followed by 29 identical injections (8 μL), at a rate of 0.5 μL/s and with 150 or 200 s intervals. All experiments were performed at 15 °C while stirring at 350 rpm. The heat of dilution was determined by independent titrations (protein into buffer) and subtracted from the experimental raw data. Data were processed using NanoAnalyze software (version 3.10.0) provided by the instrument manufacturer. The first injection was excluded from the analysis, and fitted curves were generated by applying the independent model (single binding site) to the raw data. Complete thermodynamic data analysis can be found in Table S2.

[14] = 95% confidence level, read-out: ITC Kd

SMILES: Cn1cc(-c2ccc(C(=O)Nc3cc(-c4ccccc4)ccc3N)nc2)c2cc[nH]c2c1=O [NB512]
- EC50 ([1]; intact and permeabilized cells, read-out: NanoBRET EC50 both BRD4 bromodomains): 100 to 400 nM

SMILES: Cn1cc(-c2ccc(C(=O)Nc3cc(-c4ccccc4)ccc3N)cc2)c2cc[nH]c2c1=O [NB503]
- Mean Tm SMARCA2A [2]: 1.2 ± 0.5 K
- Mean Tm BRD2 (1) [3]: 3.2 ± 0.5 K
- Mean Tm PB1A(3) [4]: 0.0 ± 0.0 K
- Mean Tm BRD2 (2) [5]: 3.6 ± 0.4 K
- Mean Tm BRD9 [6]: 1.0 ± 0.8 K
- Mean Tm ATAD2A [7]: -1.3 ± 0.1 K
- Mean Tm BRD3 (1) [8]: 3.8 ± 0.4 K
- Mean Tm PB1A(4) [9]: 1.0 ± 0.6 K
- Mean Tm WDR9A(1) [10]: 0.0 ± 0.0 K
- Mean Tm CREBBPA [11]: 1.4 ± 0.3 K
- bromodomain selectivity in DSF screen [12]: high selectivity for BET bromodomains

SMILES: Cn1cc(-c2ccc(C(=O)Nc3ccccc3N)cc2)c2cc[nH]c2c1=O [NB462]
- Mean Tm SMARCA2A [2]: -0.1 ± 0.1 K
- Mean Tm BRD2 (1) [3]: 3.1 ± 0.5 K
- Mean Tm PB1A(3) [4]: 0.5 ± 0.2 K
- Mean Tm BRD2 (2) [5]: 5.3 ± 0.1 K
- Mean Tm BRD9 [6]: 5.2 ± 1.2 K
- Mean Tm ATAD2A [7]: 0.4 ± 0.2 K
- Mean Tm BRD3 (1) [8]: 3.8 ± 0.3 K
- Mean Tm PB1A(4) [9]: 0.1 ± 0.1 K
- Mean Tm WDR9A(1) [10]: -0.3 ± 0.2 K
- Mean Tm CREBBPA [11]: 1.8 ± 0.3 K
- EC50 ([1]; BD1 and BD2, intact cells, read-out: NanoBRET EC50 BRD4 bromodomains): 100 to 400 nM
- bromodomain selectivity in DSF screen [12]: BRD7 and BRD9 as prominent off-targets
- ITC -TΔS [13]: 1.371 kcal/mol
- ITC Ka [13]: 6.58E+06 Mˉ¹
- ITC n (stoichiometry) [13]: 0.996 ± 0.029
- ITC ΔG [13]: -8.99 kcal/mol
- ITC ΔH [13]: -10.36 ± 0.501 kcal/mol
- ITC ΔS [13]: -4.759 cal/mol·K
- Kd [13, 14]: 152 nM

SMILES: Cn1cc(-c2ccc(C(=O)Nc3ccccc3N)nc2)c2cc[nH]c2c1=O [NB500]
- fold increased binding affinity to BRD4 BD1 in ITC vs NB462 [13]: 3 fold
- ITC -TΔS [13]: -1.832 kcal/mol
- ITC Ka [13]: 2.18E+07 Mˉ¹
- ITC n (stoichiometry) [13]: 1.003 ± 0.022
- ITC ΔG [13]: -9.676 kcal/mol
- ITC ΔH [13]: -7.844 ± 0.360 kcal/mol
- ITC ΔS [13]: 6.358 cal/mol·K
- Kd [13, 14]: 45.8 nM
- Kd ([13]; read-out: ITC Kd BRD4 BD1): 46 nM
